PMC4916434, “Evaluation of the inhibition potential of plumbagin against cytochrome P450 using LC-MS/MS and cocktail approach” (Scientific Reports, 2016)

Biological target: T1, CYP2C11 (Rattus norvegicus, UniProt P08683)
T1 construct: consisting of pooled HLMs (0.5 mg/ml) or RLMs (1 mg/ml) and an NADPH-regenerating system; from tissue; host or cells: rat liver microsomes prepared in house
T1 sequence (P08683 1-500): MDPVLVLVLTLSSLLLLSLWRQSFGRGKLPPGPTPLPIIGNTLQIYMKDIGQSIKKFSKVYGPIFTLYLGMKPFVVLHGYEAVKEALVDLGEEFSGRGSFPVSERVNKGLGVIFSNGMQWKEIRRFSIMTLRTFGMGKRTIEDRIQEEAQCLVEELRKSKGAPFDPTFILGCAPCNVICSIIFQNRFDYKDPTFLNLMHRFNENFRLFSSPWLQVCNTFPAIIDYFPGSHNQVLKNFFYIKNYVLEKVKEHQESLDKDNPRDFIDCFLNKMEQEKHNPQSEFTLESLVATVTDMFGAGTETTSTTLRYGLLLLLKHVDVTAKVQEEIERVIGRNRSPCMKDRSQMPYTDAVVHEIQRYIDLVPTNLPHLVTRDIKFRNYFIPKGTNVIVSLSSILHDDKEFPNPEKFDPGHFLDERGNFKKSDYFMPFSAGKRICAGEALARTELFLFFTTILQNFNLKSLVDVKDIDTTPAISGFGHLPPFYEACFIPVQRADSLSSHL
Format: in vitro ADME
Protocol: In this study, the rats were fasted overnight and killed by cervical dislocation before removal of the liver. The liver was excised, rinsed with ice-cold saline (0.9% NaCl w/v), weighed and homogenized in a […] Tris/KCl buffer (pH 7.4). Subsequently, the homogenate was centrifuged at 10,000 × g at 4 °C for 30 min. The supernatant was then centrifuged at 105,000 × g at 4 °C for 60 min. The pellet was reconstituted with […] Tris/KCl buffer (pH 7.4) and stored at −150 °C until use. The protein concentration of the liver microsomes was determined by a protein quantitative assay using bicinchoninic acid[22].
Microsomal incubation was carried out at 37 °C in a mixture of 200 μl in 0.05 M Tris/HCl buffer (pH 7.4) consisting of pooled HLMs (0.5 mg/ml) or RLMs (1 mg/ml) and an NADPH-regenerating system including MgCl2 (5 mM), G6P (10 mM), G6PDH (0.4 U/ml) and NADP (1 mM). Substrates were added into the incubation mixture and obtained the final concentrations (10 μM phenacetin for CYP1A2, 20 μM bupropion for CYP2B1/6, 20 μM tolbutamide for CYP2C9/11, 5 μM dextromethorphan for CYP2D1/6, 20 μM chlorzoxazone for CYP2E1 and 10 μM midazolam for CYP3A2/4), which were close to Km respectively. The proportion of organic solvent was not higher than 1% (v/v) in the incubation mixture. After pre-incubation for 5 min, the reaction was initiated by addition of NADP. Incubations were performed for 20 min, stopped by adding 200 μl ice-cold acetonitrile. And then 20 μl internal standard solution was added (3-acetamidophenol 2 μg/ml, chlorpropamide 2 μg/ml and mebendazole 2 μg/ml). The solution was mixed thoroughly for 3 min and centrifuged for 10 min at 16,000 × g at 4 °C. The supernatant (60 μl) was transferred to autosampler vials, and 2 μl was injected into LC-MS/MS system.
The IC50 (concentration of inhibitor to cause 50% inhibition of original enzyme activity) values were determined with the same incubation condition above. The specific concentrations of plumbagin were ranged from 0.1 μM to 50 μM. The IC50 values were calculated by plotting relative activities over the logarithm of plumbagin concentrations using GraphPad Prism 5.0 (GraphPad software Inc., CA, USA).
Cocktail probe substrates were then added and incubated for 20 min. Reactions were stopped with 200 μl ice-cold acetonitrile. The samples were treated according to the microsomal incubation method and then injected into LC-MS/MS for analysis.
Kinetic studies were performed for determining the types of inhibition on CYP by plumbagin. Pooled HLMs (0.5 mg/ml) or RLMs (1 mg/ml) with plumbagin (1 μM, 2 μM, 5 μM and 10 μM) were incubated in 0.05 M Tris/HCl buffer (pH 7.4) for 20 min at 37 °C. A series of concentrations for cocktail probe substrates were used: 2.5–20 μM phenacetin for CYP1A2; 5–40 μM bupropion for CYP2B1/6; 5–40 μM tolbutamide for CYP2C9/11; 1.25–10 μM dextromethorphan for CYP2D1/6; 5–40 μM chlorzoxazone for CYP2E1; 2.5–80 μM midazolam for CYP3A2; and 0.625–5 μM midazolam for CYP3A4. Enzyme kinetics as well as statistical analysis were performed using GraphPad Prism 5.0.
All data were presented as mean ± SD. The IC50 values were fitted by non-linear regression analysis using GraphPad Prism 5.0. The kinetic parameters were obtained by fitting velocity data to kinetic models (Michaelis-Menten) using GraphPad Prism 5.0. The Lineweaver-Burk Plot (the reciprocal of reaction velocities versus the reciprocal of substrates concentrations) was used to determine the quality of fit to a specific inhibition model. The inhibition constant (Ki) was obtained by a secondary plot using the slopes of the primary Lineweaver-Burk Plot (Km/Vmax versus inhibitor concentrations). αKi was obtained from a secondary plot using the y-intercepts of the Lineweaver-Burk plot (1/Vmax versus inhibitor concentrations). All results were analyzed in quadruplicate. One-way analysis of variance was used to estimate the significance of differences. […]

CC1=CC(=O)c2c(O)cccc2C1=O [plumbagin, 5-hydroxy-2-methyl-1,4-naphthoquinone]
IC50: 3.85 µM | Ki: 7.85 µM | Type of inhibition: competitive
